Test results as given in ChEMBL document CHEMBL3826915, “Design and comparative anticonvulsant activity assessment of CNS-active alkyl-carbamoyl imidazole derivatives” (Bioorg Med Chem, 2016).
Active and inactive are the calls of the source. No cut-off for these calls is given here.

Key:
Mus musculus [1] = test: Neurotoxicity in albino CF1 mouse assessed as behavioral impairment at 100 mg/kg, ip after 2 hrs by rotorod test; type: toxicity, organism-based; conditions: in vivo
Rattus norvegicus [2] = test: Neurotoxicity in albino Sprague-Dawley rat assessed as behavioral impairment at 30 mg/kg, ip after 0.5 hrs by rotorod test; type: toxicity, organism-based; conditions: in vivo
Mus musculus [3] = test: Anticonvulsant activity in albino CF1 mouse assessed as protection against maximal electroshock-induced seizures at 300 mg/kg, ip after 0.5 hrs; type: functional, organism-based
Rattus norvegicus [4] = test: Anticonvulsant activity in albino Sprague-Dawley rat assessed as protection against maximal electroshock-induced seizures at 30 mg/kg, po after 1 hr; type: functional, organism-based
Mus musculus [5] = test: Anticonvulsant activity in albino CF1 mouse assessed as protection against 32 mA current-induced seizure at 100 mg/kg, ip after 2 hrs by 6 Hz psychomotor test; type: functional, organism-based
Rattus norvegicus [6] = test: Neurotoxicity in albino Sprague-Dawley rat assessed as behavioral impairment at 30 mg/kg, ip after 2 hrs by rotorod test; type: toxicity, organism-based; conditions: in vivo
Rattus norvegicus [7] = test: Neurotoxicity in albino Sprague-Dawley rat assessed as behavioral impairment at 30 mg/kg, po after 1 hr by rotorod test; type: toxicity, organism-based; conditions: in vivo
Mus musculus [8] = test: Neurotoxicity in albino CF1 mouse assessed as behavioral impairment at 30 mg/kg, ip after 2 hrs by rotorod test; type: toxicity, organism-based; conditions: in vivo
Rattus norvegicus [9] = test: Anticonvulsant activity in albino Sprague-Dawley rat assessed as protection against maximal electroshock-induced seizures at 30 mg/kg, po after 0.5 hrs; type: functional, organism-based
Mus musculus [10] = test: Neurotoxicity in albino CF1 mouse assessed as behavioral impairment at 30 mg/kg, ip after 0.5 hrs by rotorod test; type: toxicity, organism-based; conditions: in vivo
Mus musculus [11] = test: Anticonvulsant activity in albino CF1 mouse assessed as protection against 32 mA current-induced seizure at 300 mg/kg, ip after 2 hrs by 6 Hz psychomotor test; type: functional, organism-based
Mus musculus [12] = test: Anticonvulsant activity in albino CF1 mouse assessed as protection against maximal electroshock-induced seizures at 30 mg/kg, ip after 0.5 hrs; type: functional, organism-based
Mus musculus [13] = test: Anticonvulsant activity in albino CF1 mouse assessed as protection against 32 mA current-induced seizure at 30 mg/kg, ip after 2 hrs by 6 Hz psychomotor test; type: functional, organism-based
Rattus norvegicus [14] = test: Anticonvulsant activity in albino Sprague-Dawley rat assessed as protection against maximal electroshock-induced seizures at 30 mg/kg, po after 2 hrs; type: functional, organism-based
Mus musculus [15] = test: Anticonvulsant activity in albino CF1 mouse assessed as protection against 32 mA current-induced seizure at 30 mg/kg, ip after 0.5 hrs by 6 Hz psychomotor test; type: functional, organism-based
Mus musculus [16] = test: Anticonvulsant activity in albino CF1 mouse assessed as protection against maximal electroshock-induced seizures at 100 mg/kg, ip after 2 hrs; type: functional, organism-based
Rattus norvegicus [17] = test: Neurotoxicity in albino Sprague-Dawley rat assessed as behavioral impairment at 30 mg/kg, po after 2 hrs by rotorod test; type: toxicity, organism-based; conditions: in vivo
Mus musculus [18] = test: Anticonvulsant activity in albino CF1 mouse assessed as protection against 32 mA current-induced seizure at 300 mg/kg, ip after 0.5 hrs by 6 Hz psychomotor test; type: functional, organism-based
Mus musculus [19] = test: Anticonvulsant activity in albino CF1 mouse assessed as protection against maximal electroshock-induced seizures at 30 mg/kg, ip after 2 hrs; type: functional, organism-based
Rattus norvegicus [20] = test: Neurotoxicity in albino Sprague-Dawley rat assessed as behavioral impairment at 30 mg/kg, ip after 0.25 hrs by rotorod test; type: toxicity, organism-based; conditions: in vivo
Rattus norvegicus [21] = test: Neurotoxicity in albino Sprague-Dawley rat assessed as behavioral impairment at 30 mg/kg, po after 0.5 hrs by rotorod test; type: toxicity, organism-based; conditions: in vivo
Rattus norvegicus [22] = test: Neurotoxicity in albino Sprague-Dawley rat assessed as behavioral impairment at 30 mg/kg, ip after 1 hr by rotorod test; type: toxicity, organism-based; conditions: in vivo
Rattus norvegicus [23] = test: Neurotoxicity in albino Sprague-Dawley rat assessed as behavioral impairment at 30 mg/kg, po after 0.25 hrs by rotorod test; type: toxicity, organism-based; conditions: in vivo
Mus musculus [24] = test: Anticonvulsant activity in albino CF1 mouse assessed as protection against 32 mA current-induced seizure at 100 mg/kg, ip after 0.5 hrs by 6 Hz psychomotor test; type: functional, organism-based
Mus musculus [25] = test: Anticonvulsant activity in albino CF1 mouse assessed as protection against maximal electroshock-induced seizures at 300 mg/kg, ip after 2 hrs; type: functional, organism-based
Mus musculus [26] = test: Anticonvulsant activity in ip dosed albino CF1 mouse assessed as protection against subcutaneous metrazol-induced seizures by measuring time to peak effect; type: functional
Mus musculus [27] = test: Anticonvulsant activity in ip dosed albino CF1 mouse assessed as protection against 6 Hz current-induced seizure by measuring time to peak effect; type: functional
Rattus norvegicus [28] = test: Anticonvulsant activity in albino Sprague-Dawley rat assessed as protection against maximal electroshock-induced seizures at 30 mg/kg, ip after 0.5 hrs; type: functional, organism-based
Mus musculus [29] = test: Anticonvulsant activity in ip dosed albino CF1 mouse assessed as protection against 6 Hz current-induced seizures by psychomotor test; type: functional
[30] = Protective index, ratio of TD50 for neurotoxicity in ip dosed albino CF1 mouse to ED50 for anticonvulsant activity in ip dosed maximal electroshock-induced seizure albino CF1 mouse model; type: toxicity, organism-based; conditions: in vivo, read-out: Ratio TD50/ED50
Rattus norvegicus [31] = test: Anticonvulsant activity in albino Sprague-Dawley rat assessed as protection against maximal electroshock-induced seizures at 30 mg/kg, ip after 0.25 hrs; type: functional, organism-based
Mus musculus [32] = test: Anticonvulsant activity in ip dosed albino CF1 mouse assessed as protection against subcutaneous metrazol-induced seizures; type: functional
[33] = Neurotoxicity in ip dosed albino CF1 mouse assessed as motor impairment by rotorod test; type: toxicity, organism-based; conditions: in vivo
Mus musculus [34] = test: Anticonvulsant activity in ip dosed albino CF1 mouse assessed as protection against maximal electroshock-induced seizures; type: functional
Mus musculus [35] = test: Anticonvulsant activity in ip dosed albino CF1 mouse assessed as protection against maximal electroshock-induced seizures by measuring time to peak effect; type: functional
Mus musculus [36] = test: Neurotoxicity in albino CF1 mouse assessed as behavioral impairment at 300 mg/kg, ip after 2 hrs by rotorod test; type: toxicity, organism-based; conditions: in vivo
Mus musculus [37] = test: Anticonvulsant activity in albino CF1 mouse assessed as protection against maximal electroshock-induced seizures at 100 mg/kg, ip after 0.5 hrs; type: functional, organism-based
Mus musculus [38] = test: Neurotoxicity in albino CF1 mouse assessed as behavioral impairment at 300 mg/kg, ip after 0.5 hrs by rotorod test; type: toxicity, organism-based; conditions: in vivo
[39] = Protective index, ratio of TD50 for neurotoxicity in ip dosed albino CF1 mouse to ED50 for anticonvulsant activity in ip dosed […] metrazol-induced seizure albino CF1 mouse model; type: toxicity, organism-based; conditions: in vivo, read-out: Ratio TD50/ED50
Rattus norvegicus [40] = test: Anticonvulsant activity in albino Sprague-Dawley rat assessed as protection against maximal electroshock-induced seizures at 30 mg/kg, ip after 2 hrs; type: functional, organism-based
Rattus norvegicus [41] = test: Anticonvulsant activity in albino Sprague-Dawley rat assessed as protection against maximal electroshock-induced seizures at 30 mg/kg, po after 0.25 hrs; type: functional, organism-based
Rattus norvegicus [42] = test: Anticonvulsant activity in albino Sprague-Dawley rat assessed as protection against maximal electroshock-induced seizures at 30 mg/kg, ip after 1 hr; type: functional, organism-based

SMILES	Activity (Mus musculus [1])	Activity (Rattus norvegicus [2])	Activity (Mus musculus [3])	Activity (Rattus norvegicus [6])	Activity (Rattus norvegicus [7])	Activity (Mus musculus [8])	Activity (Mus musculus [10])	Activity (Mus musculus [12])	Activity (Mus musculus [13])	Activity (Rattus norvegicus [14])	Activity (Mus musculus [15])	Activity (Mus musculus [16])	Activity (Rattus norvegicus [17])	Activity (Mus musculus [19])	Activity (Rattus norvegicus [20])	Activity (Rattus norvegicus [21])	Activity (Rattus norvegicus [22])	Activity (Rattus norvegicus [23])	Activity (Mus musculus [37])	Activity (Mus musculus [38])	also measured
CC(C)(C)COC(=O)NCCCn1ccnc1	Non-toxic	Non-toxic	inactive	Non-toxic	Non-toxic	Non-toxic	Non-toxic	inactive	inactive	inactive	inactive	Active	Non-toxic	inactive	Non-toxic	Non-toxic	Non-toxic	Non-toxic			Activity (Rattus norvegicus [4]): inactive; Activity (Mus musculus [5]): inactive; Activity (Rattus norvegicus [9]): inactive; Activity (Mus musculus [11]): inactive; Activity (Mus musculus [18]): inactive; Activity (Mus musculus [24]): inactive; Activity (Mus musculus [25]): Active
O=C(NCCCn1ccnc1)OCCc1ccccc1	Non-toxic	Non-toxic	Active	Non-toxic	Non-toxic	Non-toxic	Non-toxic	Active	inactive	inactive	inactive	Active	Non-toxic	inactive	Non-toxic	Non-toxic	Non-toxic	Non-toxic	Active	Toxic	Time (Mus musculus [26]): 0.5 h; Time (Mus musculus [27]): 0.5 h; Activity (Rattus norvegicus [28]): Active; ED50 (Mus musculus [29]): inactive; selectivity ratio [30]: 5.5; Activity (Rattus norvegicus [31]): Active; ED50 (Mus musculus [32]): > 80 mg/kg; TD50 [33]: 77 mg/kg; ED50 (Mus musculus [34]): 14 mg/kg; Time (Mus musculus [35]): 0.5 h; Activity (Mus musculus [36]): Toxic; Activity (Mus musculus [24]): Active; Activity (Mus musculus [25]): Active; selectivity ratio [39]: 0.96
CC(C)(C)CCOC(=O)NCCCn1ccnc1	Non-toxic	Non-toxic		Non-toxic	Non-toxic	Non-toxic	Non-toxic		inactive	inactive	inactive	Active	Non-toxic	inactive	Non-toxic	Non-toxic	Non-toxic	Non-toxic	Active	Toxic	Activity (Rattus norvegicus [4]): inactive; Activity (Rattus norvegicus [40]): inactive; Activity (Rattus norvegicus [9]): inactive; Activity (Rattus norvegicus [41]): inactive; Activity (Mus musculus [36]): Toxic
CCC(C)C(C)OC(=O)NCCCn1ccnc1 (stereo not given)	Non-toxic	Non-toxic	Active	Non-toxic	Non-toxic	Non-toxic	Non-toxic	inactive	inactive	inactive	inactive	Active	Non-toxic	inactive	Non-toxic	Non-toxic	Non-toxic	Non-toxic	Active	Toxic	Activity (Mus musculus [5]): inactive; Activity (Rattus norvegicus [40]): inactive; Activity (Rattus norvegicus [9]): inactive; Activity (Rattus norvegicus [41]): inactive; Activity (Rattus norvegicus [42]): inactive
CCCC(CCC)C(=O)O [VALPROIC ACID]																					Time (Mus musculus [26]): 0.5 h; Time (Mus musculus [27]): 0.5 h; ED50 (Mus musculus [32]): 646 mg/kg; TD50 [33]: 784 mg/kg; Time (Mus musculus [35]): 0.5 h
CCCCC(CC)COC(=O)NCCCn1ccnc1 (stereo not given)	Non-toxic					Non-toxic	Non-toxic	inactive	inactive		inactive			inactive					Active	Toxic	Activity (Mus musculus [5]): inactive; Activity (Mus musculus [36]): Toxic
NC(=O)OCC(COC(N)=O)c1ccccc1 [FELBAMATE]																					Time (Mus musculus [26]): 0.5 h; Time (Mus musculus [27]): 0.5 h; selectivity ratio [30]: > 20; ED50 (Mus musculus [32]): > 250 mg/kg; TD50 [33]: > 500 mg/kg; ED50 (Mus musculus [34]): 25 mg/kg; Time (Mus musculus [35]): 0.5 h
